This note sets out measurements from PMC5004176, “The antifungal plant defensin AtPDF2.3 from Arabidopsis thaliana blocks potassium channels” (Scientific Reports, 2016).

Ends that are not written are not given here.

The test system of data set [1] is Saccharomyces cerevisiae BY4743 ∆frq1. Description: Yeast growth inhibitory assay. It is filed as cell-based. The following applies: BY4743 ∆frq1, MM medium, 24 hours, OD490nm, mean ± SEM, n ≥ 3; read-out: IC50 (growth inhibition).
The subject of data set [2] is Saccharomyces cerevisiae BY4741 ∆qdr2. Description: Yeast growth inhibitory assay. It is filed as cell-based. To be noted: BY4741 ∆qdr2, MM medium, 24 hours, OD490nm, mean ± SEM, n ≥ 3; read-out: IC50 (growth inhibition).
A further data set has as its system Kv1.6 channels. Description: Two-electrode voltage-clamp on Kv1.6 expressed in X. laevis oocytes. The following applies: n ≥ 3.
Data set [3] relates to Saccharomyces cerevisiae BY4741 ∆vhc1. Description: Yeast growth inhibitory assay. It is filed as cell-based. To be noted: BY4741 ∆vhc1, MM medium, 24 hours, OD490nm, mean ± SEM, n ≥ 3; read-out: IC50 (growth inhibition).
In the next data set the test system is Nav1.4. Description: Two-electrode voltage-clamp on Nav1.4 expressed in X. laevis oocytes. It counts as cell-based. To be noted: 5 μM, n ≥ 4.
Data set [4] concerns Saccharomyces cerevisiae BY4741 ∆nha1. Description: Yeast growth inhibitory assay. To be noted: BY4741 ∆nha1, MM medium, 24 hours, OD490nm, mean ± SEM, n ≥ 3; read-out: IC50 (growth inhibition). It counts as cell-based.
Data set [5] relates to Saccharomyces cerevisiae BY4741 ∆hal5. Description: Yeast growth inhibitory assay. It is filed as cell-based. To be noted: BY4741 ∆hal5, MM medium, 24 hours, OD490nm, mean ± SEM, n ≥ 3; read-out: IC50 (growth inhibition).
The subject of another data set is Verticillium dahliae. In words: Fungal growth inhibitory assay. It is filed as cell-based. To be noted: half strength PDB, 10^4 spores/mL, 48 hours, determined microscopically, n ≥ 3; read-out: IC50 (growth inhibition).
A further data set has as its system Fusarium oxysporum. Description: Fungal growth inhibitory assay. It is filed as cell-based. The following applies: half strength PDB, 10^4 spores/mL, 48 hours, determined microscopically, n ≥ 3; read-out: IC50 (growth inhibition).
In the next data set the test system is Kv1.3. In words: Two-electrode voltage-clamp on Kv1.3 expressed in X. laevis oocytes. To be noted: 3 μM, n ≥ 3. In general terms: In two-electrode clamp one electrode senses voltage and the other passes current.
In another data set the test system is Kv1.4. In words: Two-electrode voltage-clamp on Kv1.4 expressed in X. laevis oocytes. The following applies: 3 μM, n ≥ 3.
The subject of another data set is hERG (Kv11.1). In words: Two-electrode voltage-clamp on hERG expressed in X. laevis oocytes. The following applies: 3 μM, n ≥ 3.
The next data set has as its system Botrytis cinerea R16. Description: Fungal growth inhibitory assay. It is filed as cell-based. The following applies: half strength PDB, 10^4 spores/mL, 48 hours, determined microscopically, n ≥ 3; read-out: IC50 (growth inhibition).

As a reminder, the IC50 is the midpoint of a concentration-inhibition curve.

Protocol for Kv1.3: (§1) For the expression of the voltage-gated potassium channels (rKv1.1, rKv1.2, hKv1.3, rKv1.4, rKv1.5, rKv1.6, Shaker IR, hKv3.1, rKv4.3, and hERG) in Xenopus laevis oocytes, the linearized plasmids were transcribed using the T7 or SP6 mMESSAGE-mMACHINE transcription kit (Ambion). The harvesting of stage V–VI oocytes from an anaesthetized female X. laevis frog was previously described[59]. Oocytes were injected with 50 nL of cRNA at a concentration of 1 ng/nL using a micro-injector (Drummond Scientific, USA). The oocytes were incubated in a solution containing (in mM): NaCl, 96; KCl, 2; CaCl2, 1.8; MgCl2, 2 and HEPES, 5 (pH 7.4), supplemented with 50 mg/L gentamycin sulfate.
(§2) Two-electrode voltage-clamp recordings were performed at room temperature (18–22 °C) using a Geneclamp 500 amplifier (Molecular Devices, USA) controlled by a pClamp data acquisition system (Axon Instruments, USA). Whole cell currents from oocytes were recorded 1–4 days after injection. Bath solution composition was ND96 (in mM): NaCl, 96; KCl, 2; CaCl2, 1.8; MgCl2, 2 and HEPES, 5 (pH 7.4) or HK (in mM): NaCl, 2; KCl, 96; CaCl2, 1.8; MgCl2, 2 and HEPES, 5 (pH 7.4). Voltage and current electrodes were filled with 3 M KCl. Resistances of both electrodes were kept between 0.7 and 1.5 MΩ. […] GV curves were calculated from IV relationships as follows: gK = IK/(Em−EK) with EK = (RT/zF)ln[K #0]o/[K #0]i. […]
Protocol for Kv1.4: as §1, §2
Protocol for Kv1.6 channels: as §1
Two-electrode voltage-clamp recordings were performed at room temperature (18–22 °C) using a Geneclamp 500 amplifier (Molecular Devices, USA) controlled by a pClamp data acquisition system (Axon Instruments, USA). Whole cell currents from oocytes were recorded 1–4 days after injection. Bath solution composition was ND96 (in mM): NaCl, 96; KCl, 2; CaCl2, 1.8; MgCl2, 2 and HEPES, 5 (pH 7.4) or HK (in mM): NaCl, 2; KCl, 96; CaCl2, 1.8; MgCl2, 2 and HEPES, 5 (pH 7.4). Voltage and current electrodes were filled with 3 M KCl. Resistances of both electrodes were kept between 0.7 and 1.5 MΩ. The elicited currents were filtered at 0.5 kHz and sampled at 2 kHz (for potassium currents) or filtered at 2 kHz and sampled at 20 kHz (for sodium currents) using a four-pole low-pass Bessel filter. Leak subtraction was performed using a -P/4 protocol. Kv1.1–Kv1.6 and Shaker currents were evoked by 250 ms depolarizations to 0 mV followed by a 250 ms pulse to −50 mV, from a holding potential of −90 mV. Current traces of hERG channels were elicited by applying a +40 mV prepulse for 2 s followed by a step to −120 mV for 2 s. […] In order to investigate the current–voltage relationship, current traces were evoked by 10 mV depolarization steps from a holding potential of −90 mV. To assess the concentration dependency of the toxin induced inhibitory effects, a concentration–response curve was constructed, in which the percentage of current inhibition was plotted as a function of toxin concentration. Data were fitted with the Hill equation: y = 100/[1 + (IC50/[toxin])^h], were y is the amplitude of the toxin-induced effect, IC50 is the toxin concentration at half-maximal efficacy, [toxin] is the toxin concentration, and h is the Hill coefficient. GV curves were calculated from IV relationships as follows: gK = IK/(Em−EK) with EK = (RT/zF)ln[K #0]o/[K #0]i. In these equations gK represents the conductance, IK the potassium current, Em the membrane potential, EK the reversal potential, R the gas constant (8.31 J/K mol), T the temperature, z the charge of the ion (for K+ ions: z = 1), F the Faraday’s constant (96.500 C/mol), [K #0]o and [K #0]i respectively are the extracellular and intracellular K+ ion concentrations. The values of IK or gK were plotted as function of voltage and fitted using the Boltzmann equation: gK/gmax = [1 + exp(Vg−V)/k]−1, were gmax represents maximal gK, Vg is the voltage corresponding to half-maximal conductance, and k is the slope factor. Comparison of two sample means was made using a paired Student’s t test (P < 0.05). All data represent at least three independent experiments (n ≥ 3) and are presented as mean ± standard error.
Protocol for hERG (Kv11.1): as §1, §2

With “rAtPDF2.3: Arabidopsis thaliana plant defensin AtPDF2.3 produced recombinantly in Pichia pastoris (RTCESKSHRFKGPCVSTHNCANVCHNEGFGGGKCRGFRRRCYCTRHC; ends and bridges not checked; cysteine pairing not given here)”, the concentration for half-maximal inhibition (IC50) in [1] was found to be 3.1 ± 0.1 µM; in [2] it was 2.9 ± 0.2 µM; with Kv1.6 channels (read-out: IC50 for Kv1.6, two-electrode voltage-clamp, X. laevis oocytes, concentration-response curve fitted with Hill equation, mean ± standard error), 0.978 ± 0.113 µM; in [3], 8 ± 0.2 µM; in data set [4] it was 9.1 ± 0.7 µM; in data set [5], 4 ± 0.4 µM. Also, the values for the half-inhibitory concentration (IC50) with Verticillium dahliae, in the data set with Fusarium oxysporum and in the data set with Botrytis cinerea R16 were 4.4 ± 1.6 µM, 4.4 ± 1.6 µM and 5.8 µM, respectively. Besides, the “activity on Kv1.6 at single concentration” value with Kv1.6 channels (3 μM) is on record as “can block”. In the data set with Nav1.4, the “activity on Nav1.4” value was “does not show activity”. For the same substance, in the data set with Kv1.3, the “activity on Kv1.3 at single concentration” value is reported as “no effect”. In the data set with Kv1.4, the “activity on Kv1.4 at single concentration” value is “no effect”. Also, the “activity on hERG (Kv11.1) at single concentration” value with hERG (Kv11.1) is reported as “no effect”.
